In the supplement of paper PMC10307832:

Tests used:
Assay in all cases: relative viability (nuclei count vs DMSO), 5 days (fraction); higher = more cells survive
Sulindac + Navitoclax = compound: CC1=C(CC(=O)O)c2cc(F)ccc2/C1=C\c1ccc([S+](C)[O-])cc1 [Sulindac] + CC1(C)CCC(c2ccc(Cl)cc2)=C(CN2CCN(c3ccc(C(=O)NS(=O)(=O)c4ccc(N[C@H](CCN5CCOCC5)CSc5ccccc5)c(S(=O)(=O)C(F)(F)F)c4)cc3)CC2)C1 [Navitoclax] (partner 0.5 µM)
Outline: (§1)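 Lung cancer cell lines in 1536-well plates got either a single drug or a fixed anchor-drug dose together with five library-drug doses (not always all listed) in √10 steps, by pin tool, on the day after seeding. Nuclei were counted after 5 days, and relative viability is the treated-to-vehicle ratio of nuclei counts. Values are medians of duplicate plates.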

[1] = compound: CN[C@@H]1C[C@H]2O[C@@](C)([C@@H]1OC)n1c3ccccc3c3c4c(c5c6ccccc6n2c5c31)C(=O)NC4 [Staurosporine] + CC(=O)Nc1cccc(-n2c(=O)n(C3CC3)c(=O)c3c(Nc4ccc(I)cc4F)n(C)c(=O)c(C)c32)c1 [Trametinib] (partner 0.02 µM)
Outline: as §1

[2] = compound: CN[C@@H]1C[C@H]2O[C@@](C)([C@@H]1OC)n1c3ccccc3c3c4c(c5c6ccccc6n2c5c31)C(=O)NC4 [Staurosporine] + CCNC(=O)c1noc(-c2cc(C(C)C)c(O)cc2O)c1-c1ccc(CN2CCOCC2)cc1 [Luminespib] (partner 0.01 µM)
Outline: as §1

Sulindac + Phenformin = compound: CC1=C(CC(=O)O)c2cc(F)ccc2/C1=C\c1ccc([S+](C)[O-])cc1 [Sulindac] + N=C(N)NC(=N)NCCc1ccccc1 [Phenformin] (partner 250 µM)
Outline: as §1

Row | Cell Line | relative viability (Sulindac + Navitoclax; first compound 0.08 µM) | relative viability (Sulindac + Navitoclax; first compound 0.253 µM) | relative viability (Sulindac + Navitoclax; first compound 0.8 µM) | relative viability (Sulindac + Navitoclax; first compound 2.53 µM) | relative viability (Sulindac + Navitoclax; first compound 8 µM) | relative viability ([1]; first compound 0.005 µM) | relative viability ([1]; first compound 0.01581 µM) | relative viability ([1]; first compound 0.05 µM) | relative viability ([1]; first compound 0.1581 µM) | relative viability ([1]; first compound 0.5 µM) | relative viability ([2]; first compound 0.005 µM) | relative viability ([2]; first compound 0.01581 µM) | relative viability ([2]; first compound 0.05 µM) | relative viability ([2]; first compound 0.1581 µM) | relative viability ([2]; first compound 0.5 µM) | relative viability (Sulindac + Phenformin; first compound 0.08 µM) | relative viability (Sulindac + Phenformin; first compound 0.253 µM) | relative viability (Sulindac + Phenformin; first compound 0.8 µM) | relative viability (Sulindac + Phenformin; first compound 2.53 µM) | relative viability (Sulindac + Phenformin; first compound 8 µM)
1 | HCC-827 | 1.04 | 1.02 | 0.997 | 0.973 | 1.08 | 0.625 | 0.641 | 0.357 | 0.313 | 0.231 | 0.997 | 0.532 | 0.13 | 0.139 | 0.121 | 0.395 | 0.367 | 0.414 | 0.413 | 0.426
2 | EMC-BAC-2 | 1.49 | 1.21 | 0.776 | 1.19 | 1.23 | 0.42 | 0.225 | 0.219 | 0.253 | – | 0.844 | 0.33 | 0.24 | 0.216 | 0.211 | 0.551 | 0.566 | 0.352 | 0.533 | 0.61
3 | NCI-H647 | 1.48 | 1.26 | 0.991 | 1.04 | 1.53 | 0.295 | 0.151 | 0.0868 | 0.0601 | 0.0349 | 0.128 | 0.174 | 0.0674 | 0.0695 | 0.0608 | 0.647 | 0.717 | 0.246 | 0.623 | 0.645
4 | NCI-H1792 | 0.796 | 0.682 | – | 0.681 | 0.691 | 0.374 | 0.263 | 0.164 | 0.0813 | 0.0466 | 0.459 | 0.287 | 0.18 | 0.188 | 0.199 | 0.243 | 0.441 | – | 0.353 | 0.255
5 | NCI-H2009 | 1.21 | 1.2 | 1.29 | 1.18 | 1.34 | 0.204 | 0.143 | 0.149 | 0.087 | 0.0761 | 0.357 | 0.271 | 0.17 | 0.114 | 0.149 | 0.549 | 0.521 | 0.45 | 0.53 | 0.538
6 | NCI-H2347 | 0.821 | 0.803 | 0.641 | 0.725 | 0.862 | 0.259 | 0.248 | 0.174 | 0.221 | 0.186 | 0.4 | 0.262 | 0.216 | 0.228 | 0.263 | 0.379 | 0.33 | – | 0.375 | 0.381
7 | NCI-H1437 | 1.28 | 1.1 | 1.05 | 1.1 | 1.38 | 0.342 | 0.244 | 0.26 | 0.21 | 0.124 | 1.05 | – | 0.774 | 0.367 | 0.26 | 0.251 | 0.321 | 0.197 | 0.301 | 0.373
8 | SK-MES-1 | 1.43 | 1.3 | 1.31 | 1.27 | 1.45 | 0.333 | 0.281 | 0.265 | 0.211 | 0.139 | – | 0.204 | 0.121 | 0.149 | 0.124 | 0.798 | 0.77 | 0.591 | 0.662 | 0.73
9 | NCI-H3122 | 0.913 | 0.999 | 1.01 | 0.992 | 1.05 | 0.368 | – | 0.648 | – | 0.221 | 0.0697 | – | 0.0639 | 0.0502 | 0.0521 | 0.384 | 0.37 | 0.626 | 0.325 | 0.413
10 | NCI-H2085 | 1.18 | 1.21 | 0.979 | 1.18 | 1.14 | 0.313 | 0.208 | 0.293 | 0.215 | 0.197 | 0.39 | 0.315 | 0.2 | 0.227 | 0.171 | 0.767 | 0.912 | 0.593 | 0.739 | 0.751
11 | PC-3 [JPC-3] | 0.971 | 0.758 | 0.786 | 0.762 | 0.752 | 0.704 | 0.543 | 0.453 | 0.391 | 0.332 | 0.628 | 0.474 | 0.319 | 0.323 | 0.272 | 0.475 | 0.494 | 0.657 | 0.458 | 0.548
12 | NCI-H838 | 1.33 | 1.19 | 1.1 | 1.18 | 1.39 | 0.174 | 0.145 | 0.208 | 0.0937 | 0.0589 | 0.247 | 0.135 | 0.138 | 0.107 | 0.113 | 0.519 | 0.652 | 0.364 | 0.518 | 0.6
13 | NCI-H1755 | 1.17 | 1.09 | 0.821 | 1.08 | 1.13 | 0.663 | 0.479 | 0.263 | 0.212 | 0.193 | 0.276 | 0.214 | 0.155 | 0.195 | 0.155 | 0.645 | 0.653 | 0.525 | 0.643 | 0.648
14 | NCI-H1650 | 1.23 | 1.12 | 1.16 | 1.04 | 1.38 | 0.501 | 0.364 | 0.187 | 0.112 | 0.0438 | 0.168 | 0.18 | 0.183 | 0.16 | 0.169 | 0.372 | 0.481 | – | 0.41 | 0.53
15 | NCI-H1944 | 0.958 | 1 | 1 | 1.07 | 1.23 | 0.373 | 0.331 | 0.356 | 0.252 | 0.195 | 0.928 | 0.507 | 0.41 | 0.44 | 0.187 | 0.209 | 0.226 | 0.18 | 0.203 | 0.271
16 | LK-2 | 1.03 | 0.91 | 0.722 | 0.768 | 0.891 | 0.906 | 0.781 | 0.701 | 0.669 | 0.333 | 0.202 | – | 0.187 | 0.153 | 0.172 | 0.412 | 0.421 | – | – | 0.529
